Source: patent US20120045393A1 (priority 2009, published 2012)
Where two headings read alike, the source gives them in different places. Non-standard residues stand in square brackets, D forms with d. Residues, ends and D or L forms follow the SMILES beside them. *: point of attachment. DOTA = O=C(O)CN1CCN(CC(=O)O)CCN(CC(=O)*)CCN(CC(=O)O)CC1; Bpa = N[C@@H](Cc1ccc(C(=O)c2ccccc2)cc1)C(=O)O; Ala(4-thiazolyl) = N[C@@H](Cc1cscn1)C(=O)O; Phe(4-Cl) = N[C@@H](Cc1ccc(Cl)cc1)C(=O)O; d2Nal = N[C@H](Cc1ccc2ccccc2c1)C(=O)O; azaGly = NNC(=O)O; Sar = CNCC(=O)O

System: LHRH binding sites on human ovarian cancer cells (EFO-27)
[1] = EFO-27 cells, competition with [125I-Tyr8]BRU-2477, 90 min
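Further: Cell-associated radioactivity on confluent EFO-27 monolayers in 96-well plates, measured by microplate scintillation counting.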

| SMILES | EC50 [µM] | also measured |
| --- | --- | --- |
| N=C(N)NCCC[C@H](NC(=O)[C@@H](Cc1ccc2ccccc2c1)NC(=O)CN1CCN(CC(=O)O)CCN(CC(=O)O)CCN(CC(=O)O)CC1)C(=O)N[C@@H](CCC(=O)O)C(=O)N[C@@H](CO)C(=O)N[C@@H](Cc1c[nH]cn1)C(=O)N[C@H](CCCNC(=N)N)C(=O)N[C@@H](Cc1c[nH]c2ccccc12)C(=O)N[C@@H](Cc1ccc(C(=O)c2ccccc2)cc1)C(=O)N1CCC[C@H]1C(=O)NNC(N)=O [BRU-3110] ({DOTA}-[d2Nal]RESH[dR]W[Bpa]P[azaGly]-NH2; C-terminus assumed) | 2.6 | binding potency, times lower than BRU-2813 (ratio of EC50 to BRU-2813 (EC50=0.33 μM)): ~8 |
| N=C(N)NCCC[C@H](NC(=O)[C@@H](Cc1ccc2ccccc2c1)NC(=O)CN1CCN(CC(=O)O)CCN(CC(=O)O)CCN(CC(=O)O)CC1)C(=O)N[C@@H](Cc1c[nH]c2ccccc12)C(=O)N[C@@H](CO)C(=O)N[C@@H](Cc1c[nH]cn1)C(=O)N[C@H](CCCNC(=N)N)C(=O)N[C@@H](Cc1c[nH]c2ccccc12)C(=O)O [compound 3046] (HELM PEPTIDE1{[O=C(O)CN1CCN(CC(=O)O)CCN(CC(=O)[*:2])CCN(CC(=O)O)CC1].[O=C([C@@H](Cc1ccc2ccccc2c1)N[*:1])[*:2]].R.W.S.H.[dR].W}$$$$V2.0; N-terminus assumed) | 15.9 | – |
| N=C(N)NCCC[C@H](NC(=O)[C@@H](Cc1ccc2ccccc2c1)NC(=O)CN1CCN(CC(=O)O)CCN(CC(=O)O)CCN(CC(=O)O)CC1)C(=O)N[C@@H](Cc1c[nH]c2ccccc12)C(=O)N[C@@H](CO)C(=O)N[C@@H](Cc1c[nH]cn1)C(=O)N[C@H](CCCNC(=N)N)C(=O)N[C@@H](Cc1c[nH]c2ccccc12)C(=O)O [BRU-3046, DO3A10CM-Dna12-Arg-Trp-Ser-His-Darg-Trp-OH] (HELM PEPTIDE1{[O=C(O)CN1CCN(CC(=O)O)CCN(CC(=O)[*:2])CCN(CC(=O)O)CC1].[O=C([C@@H](Cc1ccc2ccccc2c1)N[*:1])[*:2]].R.W.S.H.[dR].W}$$$$V2.0) | 15.8 | – |
| CNCC(=O)N[C@@H](CCCNC(=N)N)C(=O)N[C@@H](Cc1c[nH]c2ccccc12)C(=O)N[C@@H](CO)C(=O)N[C@@H](Cc1c[nH]cn1)C(=O)N[C@H](CCCNC(=N)N)C(=O)N[C@@H](Cc1c[nH]c2ccccc12)C(=O)N[C@@H](Cc1ccc(C(=O)c2ccccc2)cc1)C(=O)N1CCC[C@H]1C(=O)NCCCN1CCN(CCCNC(=O)CN2CCN(CC(=O)O)CCN(CC(=O)O)CCN(CC(=O)O)CC2)CC1 [BRU-3044] | 0.23 to 0.5 | – |
| CN(CC(=O)N[C@@H](Cc1c[nH]cn1)C(=O)N[C@@H](Cc1c[nH]c2ccccc12)C(=O)N[C@@H](CO)C(=O)N[C@@H](Cc1c[nH]cn1)C(=O)N[C@H](CO)C(=O)N[C@@H](Cc1c[nH]c2ccccc12)C(=O)N[C@@H](Cc1ccc(C(=O)c2ccccc2)cc1)C(=O)N1CCC[C@H]1C(=O)NNC(N)=O)C(=O)CN1CCN(CC(=O)O)CCN(CC(=O)O)CCN(CC(=O)O)CC1 [compound 2761] ({DOTA}-[Sar]HWSH[dS]W[Bpa]P[azaGly]-NH2) | – | EC50 [1]: 13.6 µM |
| N=C(N)NCCC[C@H](NC(=O)[C@@H](Cc1ccc2ccccc2c1)NC(=O)CN1CCN(CC(=O)O)CCN(CC(=O)O)CCN(CC(=O)O)CC1)C(=O)N[C@@H](Cc1c[nH]c2ccccc12)C(=O)N[C@@H](CO)C(=O)N[C@@H](Cc1c[nH]cn1)C(=O)N[C@H](CCCNC(=N)N)C(=O)N[C@@H](Cc1c[nH]c2ccccc12)C(=O)N[C@@H](Cc1ccc(C(=O)c2ccccc2)cc1)C(=O)N1CC[C@H]1C(=O)NNC(N)=O [compound 2993] | – | EC50 [1]: 0.38 µM |
| CN(CC(=O)N[C@@H](Cc1c[nH]cn1)C(=O)N[C@@H](Cc1c[nH]c2ccccc12)C(=O)N[C@@H](CO)C(=O)N[C@@H](Cc1c[nH]cn1)C(=O)N[C@H](CCCNC(=N)N)C(=O)N[C@@H](Cc1c[nH]c2ccccc12)C(=O)N[C@@H](Cc1ccc(C(=O)c2ccccc2)cc1)C(=O)N1CCC[C@H]1C(=O)NNC(N)=O)C(=O)CN1CCN(CC(=O)O)CCN(CC(=O)O)CCN(CC(=O)O)CC1 [BRU-2443] | – | EC50 [1]: 0.95 µM |
| N=C(N)NCCC[C@H](NC(=O)[C@@H](Cc1ccc2ccccc2c1)NC(=O)CN1CCN(CC(=O)O)CCN(CC(=O)O)CCN(CC(=O)O)CC1)C(=O)N[C@@H](Cc1c[nH]c2ccccc12)C(=O)N[C@@H](CO)C(=O)N[C@@H](Cc1c[nH]cn1)C(=O)N[C@H](CCCNC(=N)N)C(=O)N[C@@H](Cc1c[nH]c2ccccc12)C(=O)N[C@@H](Cc1ccc(C(=O)c2ccccc2)cc1)C(=O)N1CCC[C@H]1C(=O)NCC(=O)NCCCCO [compound 2986] | – | EC50 [1]: 1.66 µM |
| N=C(N)NCCC[C@H](NC(=O)[C@@H](Cc1ccc2ccccc2c1)NC(=O)CN1CCN(CC(=O)O)CCN(CC(=O)O)CCN(CC(=O)O)CC1)C(=O)N[C@@H](Cc1c[nH]c2ccccc12)C(=O)N[C@@H](CO)C(=O)N[C@@H](Cc1c[nH]cn1)C(=O)N[C@H](CCCNC(=N)N)C(=O)N[C@@H](Cc1c[nH]c2ccccc12)C(=O)N[C@@H](Cc1ccc(C(=O)c2ccccc2)cc1)C(=O)N1CCC[C@H]1C(=O)NCC(=O)N[C@@H](CCC(N)=O)C(N)=O [compound 2971] ({DOTA}-[d2Nal]RWSH[dR]W[Bpa]PGQ-NH2) | – | EC50 [1]: 0.49 µM |
| N=C(N)NCCC[C@@H](NC(=O)[C@H](Cc1c[nH]cn1)NC(=O)[C@H](CO)NC(=O)[C@H](Cc1c[nH]c2ccccc12)NC(=O)[C@H](Cc1c[nH]cn1)NC(=O)[C@@H]1CCCN1C(=O)CNC(=O)CN1CCN(CC(=O)O)CCN(CC(=O)O)CCN(CC(=O)O)CC1)C(=O)N[C@@H](Cc1c[nH]c2ccccc12)C(=O)N[C@@H](Cc1ccc(C(=O)c2ccccc2)cc1)C(=O)N1CCC[C@H]1C(=O)NNC(N)=O [BRU-2667] ({DOTA}-GPHWSH[dR]W[Bpa]P[azaGly]-NH2) | – | EC50 (Table 5: modifications of amino acids at positions 1 and 2, in vitro binding on EFO-27 cells): 7.29 µM |
| CNCC(=O)N[C@@H](CCCNC(=N)N)C(=O)N[C@@H](Cc1c[nH]c2ccccc12)C(=O)N[C@@H](CO)C(=O)N[C@@H](Cc1c[nH]cn1)C(=O)N[C@H](CCCNC(=N)N)C(=O)N[C@@H](Cc1c[nH]c2ccccc12)C(=O)N[C@@H](Cc1ccc(C(=O)c2ccccc2)cc1)C(=O)N1CCC[C@H]1C(=O)NCCOCCN [compound 3007] | 0.22 | – |

The next lines start with results.

| EC50 [µM] | SMILES | also measured |
| --- | --- | --- |
| 0.47 ± 0.02 | CC(=O)N[C@H](Cc1ccc2ccccc2c1)C(=O)N[C@@H](CCCNC(=N)N)C(=O)N[C@@H](Cc1c[nH]c2ccccc12)C(=O)N[C@@H](CO)C(=O)N[C@@H](Cc1c[nH]cn1)C(=O)N[C@H](CCCNC(=N)N)C(=O)N[C@@H](Cc1c[nH]c2ccccc12)C(=O)N[C@@H](Cc1ccc(C(=O)c2ccccc2)cc1)C(=O)N1CCC[C@H]1C(=O)NCCOCCNC(=O)CN1CCN(CC(=O)O)CCN(CC(=O)O)CCN(CC(=O)O)CC1 [compound 2992] | – |
| 0.63 | CN(CC(=O)N[C@@H](Cc1ccc(Cl)cc1)C(=O)N[C@@H](Cc1c[nH]c2ccccc12)C(=O)N[C@@H](CO)C(=O)N[C@@H](Cc1c[nH]cn1)C(=O)N[C@H](CCCNC(=N)N)C(=O)N[C@@H](Cc1c[nH]c2ccccc12)C(=O)N[C@@H](Cc1ccc(C(=O)c2ccccc2)cc1)C(=O)N1CCC[C@H]1C(=O)NNC(N)=O)C(=O)CN1CCN(CC(=O)O)CCN(CC(=O)O)CCN(CC(=O)O)CC1 [BRU-2719] ({DOTA}-[Sar][Phe(4-Cl)]WSH[dR]W[Bpa]P[azaGly]-NH2) | – |
| 0.44 | CN(CC(N)=O)NC(=O)[C@@H]1CCCN1C(=O)[C@H](Cc1ccc(C(=O)c2ccccc2)cc1)NC(=O)[C@H](Cc1c[nH]c2ccccc12)NC(=O)[C@@H](CCCNC(=N)N)NC(=O)[C@H](Cc1c[nH]cn1)NC(=O)[C@H](CO)NC(=O)[C@H](Cc1c[nH]c2ccccc12)NC(=O)[C@H](CCCNC(=N)N)NC(=O)[C@@H](Cc1ccc2ccccc2c1)NC(=O)CN1CCN(CC(=O)O)CCN(CC(=O)O)CCN(CC(=O)O)CC1 [compound 2967] | – |
| 0.5 | CN(NC(=O)[C@@H]1CCCN1C(=O)[C@H](Cc1ccc(C(=O)c2ccccc2)cc1)NC(=O)[C@H](Cc1c[nH]c2ccccc12)NC(=O)[C@@H](CCCNC(=N)N)NC(=O)[C@H](Cc1c[nH]cn1)NC(=O)[C@H](CO)NC(=O)[C@H](Cc1c[nH]c2ccccc12)NC(=O)[C@H](CCCNC(=N)N)NC(=O)[C@@H](Cc1ccc2ccccc2c1)NC(=O)CN1CCN(CC(=O)O)CCN(CC(=O)O)CCN(CC(=O)O)CC1)C(N)=O [compound 3021] | – |
| 0.23 to 0.5 | CC(=O)N[C@H](Cc1ccc2ccccc2c1)C(=O)N[C@@H](CCCNC(=N)N)C(=O)N[C@@H](Cc1c[nH]c2ccccc12)C(=O)N[C@@H](CO)C(=O)N[C@@H](Cc1c[nH]cn1)C(=O)N[C@H](CCCNC(=N)N)C(=O)N[C@@H](Cc1c[nH]c2ccccc12)C(=O)N[C@@H](Cc1ccc(C(=O)c2ccccc2)cc1)C(=O)N1CCC[C@H]1C(=O)NCCOCCNC(=O)CN1CCN(CC(=O)O)CCN(CC(=O)O)CCN(CC(=O)O)CC1 [BRU-2992] | – |
| 5.53 | CN(CC(=O)N[C@@H](Cc1c[nH]c2ccccc12)C(=O)N[C@@H](CO)C(=O)N[C@@H](Cc1cscn1)C(=O)N[C@H](CCCNC(=N)N)C(=O)N[C@@H](Cc1c[nH]c2ccccc12)C(=O)N[C@@H](Cc1ccc(C(=O)c2ccccc2)cc1)C(=O)N1CCC[C@H]1C(=O)NNC(N)=O)C(=O)CN1CCN(CC(=O)O)CCN(CC(=O)O)CCN(CC(=O)O)CC1 [compound 2740] ({DOTA}-[Sar]WS[Ala(4-thiazolyl)][dR]W[Bpa]P[azaGly]-NH2) | – |
| ≤ 0.2 | N=C(N)NCCC[C@H](NC(=O)[C@H](N)Cc1ccc2ccccc2c1)C(=O)N[C@@H](Cc1c[nH]c2ccccc12)C(=O)N[C@@H](CO)C(=O)N[C@@H](Cc1c[nH]cn1)C(=O)N[C@H](CCCNC(=N)N)C(=O)N[C@@H](Cc1c[nH]c2ccccc12)C(=O)N[C@@H](Cc1ccc(C(=O)c2ccccc2)cc1)C(=O)N1CCC[C@H]1C(=O)NCCOCCNC(=O)CN1CCN(CC(=O)O)CCN(CC(=O)O)CCN(CC(=O)O)CC1 [BRU-2991] | – |
| 2 | N=C(N)NCCC[C@H](NC(=O)[C@H](Cc1ccc(C(=O)O)cc1)NC(=O)CN1CCN(CC(=O)O)CCN(CC(=O)O)CCN(CC(=O)O)CC1)C(=O)N[C@@H](Cc1c[nH]c2ccccc12)C(=O)N[C@@H](CO)C(=O)N[C@@H](Cc1c[nH]cn1)C(=O)N[C@H](CCCNC(=N)N)C(=O)N[C@@H](Cc1c[nH]c2ccccc12)C(=O)N[C@@H](Cc1ccc(C(=O)c2ccccc2)cc1)C(=O)N1CCC[C@H]1C(=O)NNC(N)=O [BRU-3092] | – |
| 0.75 ± 0.04 | CNCC(=O)N[C@@H](CCCNC(=N)N)C(=O)N[C@@H](Cc1c[nH]c2ccccc12)C(=O)N[C@@H](CO)C(=O)N[C@@H](Cc1c[nH]cn1)C(=O)N[C@H](CCCNC(=N)N)C(=O)N[C@@H](Cc1c[nH]c2ccccc12)C(=O)N[C@@H](Cc1ccc(C(=O)c2ccccc2)cc1)C(=O)N1CCC[C@H]1C(=O)NCCCNC(=O)CN1CCN(CC(=O)O)CCN(CC(=O)O)CCN(CC(=O)O)CC1 [compound 3076] | – |
